Data: PMC6479946 (Molecules, 2019)
Where “and” joins values, the source holds several entries; their conditions need not be identical. Equal entries are not always repeated. Where two headings read alike, the source gives them in different places.

Legend:
CYP2D6 = conditions: rat liver microsomes; cited from earlier work
[1] = rats, cited from earlier work
CYP1A2 = conditions: rat liver microsomes; cited from earlier work
in vivo = conditions: for AUC(0-inf) / Tmax / AUC(0-t) / CL/F / Cmax / k el / MRT: male, Sprague-Dawley, po, 5 mg/kg; for AUC(0-inf): AUC(0-∞) of MEM; for AUC(0-inf) / Tmax / AUC(0-t) / CL/F / Cmax / k el / MRT / Ka of MEM / T1/2a of MEM / T1/2d of MEM / Vd of MEM: n = 8, mean ± SD; for Tmax: Tmax of MEM; for AUC(0-t): AUC(0-t) of MEM; for CL/F: CL/F of MEM; for Cmax: Cmax of MEM; for k el: Ke of MEM; for MRT: MRT of MEM
Protocol: The analytes were separated on an ACQUITY UPLC BEH C18 column (2.1 mm × 50 mm, 1.7 μm, Waters, Milford, USA). […] The flow rate was 0.3 mL/min. The column and sample-tray temperature were kept at 40 °C and 4 °C, respectively. The injection volume was 5.0 μL using a partial loop with needle over fill mode.
The compound dependent parameters used for analysis were summarized in Supplementary materials Table S1.
A rapid and convenient precipitation method was used to prepare the plasma samples. A 100 μL aliquot of plasma sample was spiked with 100 μL of IS solution and 300 μL of methanol in a 1.5 mL centrifuge tube; subsequently, the mixtures were vortex-mixed for 30.0 s and then centrifuged at 1.5 × 10^4× g for 10 min at 4 °C. A 100 μL aliquot of supernatant was combined with 25.0 μL of 0.1% formic acid water in a clean centrifuge tube and then vortex-mixed for 30 s. A 5.0 μL aliquot of mixture was injected into the UPLC-MS/MS system for analysis.
Fifty-six pathogen-free male adult rats were randomly divided into seven groups with eight rats in each group for pharmacokinetic study. […] One group was intragastrically administered with MEM hydrochloride 5.0 mg/kg dissolved in ultrapure water, namely, MEM group. […] The blood samples were immediately centrifuged at 4.0 × 10^3× g at […] for 10 min, and 100 μL of the supernatant plasma was transferred into another new 1.5 mL centrifuge tube and stored at −20 °C until UPLC-MS/MS analysis.
All standard curves and quantitative data were processed by Agilent Mass Hunter Quantitative Analysis Workstation Software. […] All the pharmacokinetic parameters were processed using the non-compartmental pharmacokinetics data analysis software program PK solutions 2.0^TM (Summit Research Services, USA). […] The AUC(0-t) was obtained by the linear/logarithmic trapezoidal rule, and the area under the plasma concentration versus time curve from zero to infinity (AUC(0-∞)) was calculated by means of the trapezoidal rule with extrapolation to infinity with a terminal elimination rate constant. The Pearson correlation coefficient analysis was processed by IBM SPSS Statistics Version 21. A statistical analysis was performed using analysis of variance with α = 0.05 as the minimal level of significance.

CYP3A4 = conditions: rat liver microsomes; cited from earlier work
[2] = rat, plasma, rat plasma, oral MEM 5.0 mg/kg + HAR 20.0 mg/kg (HAR-L + MEM)
[3] = rat, plasma, rat plasma, oral MEM 5.0 mg/kg + HAR 40.0 mg/kg (HAR-M + MEM)
[4] = rat, plasma, rat plasma, oral MEM 5.0 mg/kg + HAR 80.0 mg/kg (HAR-H + MEM)
[5] = rat, plasma, rat plasma, oral MEM 5.0 mg/kg alone (MEM group)
[6] = rat plasma, oral MEM 5.0 mg/kg + HAR 20.0 mg/kg (HAR-L + MEM)
[7] = rat plasma, oral MEM 5.0 mg/kg + HAR 40.0 mg/kg (HAR-M + MEM)
[8] = rat plasma, oral MEM 5.0 mg/kg + HAR 80.0 mg/kg (HAR-H + MEM)
[9] = rat plasma, oral MEM 5.0 mg/kg alone (MEM group)

For `CC12CC3CC(C)(C1)CC(N)(C3)C2` [MEM, 1-amino-3,5-dimethyladamantane, reference compound], which “inhibition of CYP2D6” value (CYP2D6) is on record?
The value was “strong inhibitor”.

And the “T1/2e of MEM” value ([1]; administered orally with 1.22 mg eq./mL MEM)?
The value was 2.23 h.

And the “T1/2e of MEM” value ([1]; administered orally with 2.00 mg eq./mL MEM)?
The value was 3.92 h.

And the “inhibition of CYP1A2” value (CYP1A2)?
The value was “weak inhibitor”.

What about the AUC(0-inf) (in vivo; rat, in vivo, rat plasma, oral MEM 5.0 mg/kg + HAR 80.0 mg/kg (HAR-H + MEM)) of the same compound?
Its AUC(0-inf) is 781 ± 285 ng·h/mL.

What about the Tmax (in vivo; rat, in vivo, rat plasma, oral MEM 5.0 mg/kg + HAR 20.0 mg/kg (HAR-L + MEM)) of the same compound?
Its Tmax is 3.13 ± 2.23 h.

What about the AUC(0-t) (in vivo; [2]) of the same compound?
The AUC(0-t) was 392 ± 55.2 ng·h/mL.

What about the AUC(0-t) (in vivo; [3]) of the same compound?
The AUC(0-t) was 472 ± 105 ng·h/mL.

And the AUC(0-t) (in vivo; [4])?
Its AUC(0-t) is 603 ± 149 ng·h/mL.

What about the AUC(0-t) (in vivo; [5]) of the same compound?
Its AUC(0-t) is 349 ± 46.2 ng·h/mL.

And the AUC(0-inf) (in vivo; [2])?
The AUC(0-inf) was 477 ± 75.1 ng·h/mL.

And the AUC(0-inf) (in vivo; [3])?
The AUC(0-inf) was 547 ± 142 ng·h/mL.

What about the AUC(0-inf) (in vivo; [5]) of the same compound?
Its AUC(0-inf) is 367 ± 4.87 ng·h/mL.

And the CL/F (in vivo; [2])?
Its CL/F is 178 mL/min/kg.

And the CL/F (in vivo; [3])?
The CL/F was 162 mL/min/kg.

What about the CL/F (in vivo; [4]) of the same compound?
The CL/F was 118 mL/min/kg.

And the CL/F (in vivo; [5])?
The CL/F was 230 mL/min/kg.

And the Cmax (in vivo; [2])?
Its Cmax is 50.5 ± 7.59 ng/mL.

What about the Cmax (in vivo; [3]) of the same compound?
Its Cmax is 74.9 ± 15 ng/mL.

What about the Cmax (in vivo; [4]) of the same compound?
Its Cmax is 74.3 ± 26.6 ng/mL.

And the Cmax (in vivo; [5])?
Its Cmax is 84.8 ± 25.8 ng/mL.

And the k el (in vivo; [2])?
Its k el is 5.31e-05 s⁻¹.

What about the k el (in vivo; [3]) of the same compound?
Its k el is 5.97e-05 s⁻¹.

And the k el (in vivo; [4])?
Its k el is 5.64e-05 s⁻¹.

And the k el (in vivo; [5])?
The k el was 7.25e-05 s⁻¹.

And the MRT (in vivo; [2])?
Its MRT is 7.45 ± 1.51 h.

And the MRT (in vivo; [3])?
The MRT was 6.25 ± 1.25 h.

And the MRT (in vivo; [4])?
Its MRT is 8.5 ± 3.74 h.

What about the MRT (in vivo; [5]) of the same compound?
Its MRT is 4.04 ± 0.808 h.

What about the Tmax (in vivo; [3]) of the same compound?
Its Tmax is 1.56 ± 1.11 h.

And the Tmax (in vivo; [4])?
The Tmax was 4 ± 1.85 h.

And the Tmax (in vivo; [5])?
The Tmax was 1.31 ± 0.579 h.

What about the “Ka of MEM” value (in vivo; [6]) of the same compound?
The value was 0.595 ± 0.315 h⁻¹.

And the “T1/2a of MEM” value (in vivo; [6])?
Its value is 1.37 ± 0.468 h.

And the “T1/2d of MEM” value (in vivo; [6])?
The value was 2.42 ± 1.06 h.

And the “Vd of MEM” value (in vivo; [6])?
The value was 60.1 ± 19.3 L/kg.

What about the “Ka of MEM” value (in vivo; [7]) of the same compound?
Its value is 1.08 ± 1.05 h⁻¹.

And the “T1/2a of MEM” value (in vivo; [7])?
The value was 0.945 ± 0.398 h.

And the “T1/2d of MEM” value (in vivo; [7])?
The value was 1.67 ± 0.560 h.

What about the “Vd of MEM” value (in vivo; [7]) of the same compound?
The value was 48.4 ± 16.4 L/kg.

What about the “Ka of MEM” value (in vivo; [8]) of the same compound?
Its value is 0.481 ± 0.203 h⁻¹.

What about the “T1/2a of MEM” value (in vivo; [8]) of the same compound?
Its value is 1.61 ± 0.459 ^bb h.

And the “T1/2d of MEM” value (in vivo; [8])?
The value was 1.61 ± 0.529 h.

What about the “Vd of MEM” value (in vivo; [8]) of the same compound?
Its value is 38.3 ± 13.1 L/kg.

And the “MEM in plasma within 24.0 h after co-administrations” value (in vivo; rat plasma, oral MEM 5.0 mg/kg + HAR 20.0, 40.0 or 80.0 mg/kg)?
The value was “a small amount of MEM could still be detected”.

And the “MEM in plasma after 24 h of administration” value (in vivo; [9])?
The value was “no MEM was detected”.

What about the “Ka of MEM” value (in vivo; [9]) of the same compound?
The value was 1.73 ± 0.848 h⁻¹.

What about the “T1/2a of MEM” value (in vivo; [9]) of the same compound?
The value was 0.482 ± 0.202 h.

And the “T1/2d of MEM” value (in vivo; [9])?
The value was 3.08 ± 2.37 h.

And the “Vd of MEM” value (in vivo; [9])?
Its value is 53.8 ± 10.6 L/kg.

What about the “T1/2e of MEM” value (in vivo; rat, in vivo) of the same compound?
The value was 2.69 ± 0.306 h and 3.96 ± 1.44 h and 3.62 ± 1.42 h and 4.27 ± 3.03 h.

And the “inhibition of CYP3A4” value (CYP3A4)?
Its value is “weak inhibitor”.
